In paper PMC12005767 (Advanced Science, 2025):
Where two headings read alike, the source gives them in different places.

Columns and labels:
HDAC9 = biological target: T1, HDAC9 (Homo sapiens, UniProt Q9UKV0); assay: In vitro HDACs inhibition fluorescence assay, HDAC9; format: biochemical; settings: mean ± SEM
T1 construct: purchased BPS Bioscience
Procedure: (§1) In Vitro HDACs Inhibition Fluorescence Assay: For the inhibitory activity against HDAC1‐10, enzymes were also procured from BPS Bioscience. The in vitro […] inhibition assays were conducted following the established method described previously.^[ [45] ^] The working concentrations of HDAC1‐10 were 4 × 10^−9 M. The fluorogenic substrate of HDAC1, 2, 3, and 6 was Boc‐Lys (acetyl)‐AMC, and the substrate of HDAC4, 5, 7, 8, 9, and 10 was Boc‐Lys (trifluoroacetyl) AMC. The developer solution consists of 30 mg mL^−1 trypsin and 5 × 10^−6 M TSA. A standing period of 30 min was sufficient before assessing the fluorescence intensity.

[1] = Tissue distribution study in ICR mice (i.p.); format: in vivo; settings: i.p. at 5 mg/kg; 0.17, 0.5 and 1 h
Procedure: For the distribution experiment, compound was dissolved in solution containing 10% DMAC, 40% PEG‐400, and 50% water and was delivered to […] male ICR mice by intraperitoneal injection (i.p.) at a dose of 5 mg kg^−1. Then three […] were sacrificed for each 0.17, 0.5, and 1 h time period. Subsequently, the heart, liver, spleen, lung, and kidney were immediately collected. Blood samples were obtained via cardiac puncture and processed by centrifugation to retrieve the plasma fraction. Tissues were flushed with normal saline, dried, weighed, and then homogenized in 5 mL methanol. Tissue samples were centrifuged at 4000 g, and supernatants were stored in freezer at −80 °C before analyzing. 20 µL of the reconstitution solution were analyzed via LC‐MS system. The 8‐week‐old male C57BL/6J mice were provided by GemPharmatech (Nanjing, China).

HDAC8 = biological target: T2, HDAC8 (Homo sapiens, UniProt Q9BY41); assay: In vitro HDACs inhibition fluorescence assay, HDAC8; format: biochemical
T2 construct: purchased BPS Bioscience
Procedure: as §1

AML12 cells [2] = assay: Mitochondrial activity (Mito-Tracker, Seahorse OCR) in FFA-treated AML12 cells; format: cell-based
ICR mice = assay: Subacute toxicity study in ICR mice; format: in vivo
Procedure: For evaluation of subacute toxicity, ICR mice were divided into two groups (n = 8 per group (4M, 4F)). The B6 was prepared in vehicle (10% DMSO and 90% 0.5% HPMC aqueous solution) to administer once daily, by oral gavage for 30 d in the treatment groups. To the control groups, vehicle was administered orally. The animals were monitored for clinical and behavioral symptoms such as body weight, diarrhea, immobility, and mortality during the first day and thereafter for 30 d.

HDAC4 = biological target: T3, HDAC4 (Homo sapiens, UniProt P56524); assay: In vitro HDACs inhibition fluorescence assay, HDAC4; format: biochemical; settings: mean ± SEM
T3 construct: purchased BPS Bioscience
Procedure: as §1

HDAC3 = biological target: T4, HDAC3 (Homo sapiens, UniProt O15379); assay: In vitro HDACs inhibition fluorescence assay, HDAC3; format: biochemical; settings: mean ± SEM
T4 construct: purchased BPS Bioscience
Procedure: as §1

myristoylation of SHMT2 = assay: Click chemistry assay of SHMT2 myristoylation in HEK293T cells; format: cell-based; settings: HEK293T cells, 0.25, 0.5 and 1 × 10^−6 M, 24 h
Procedure: For click chemistry experiment, HEK293T cells were first incubated with B6 for 24 h, followed by treatment with Alk14 for 4 h prior to harvest.
After the treatment mentioned in Section 4.2, HepG2 cells were lysed in 1% SDS lysis buffer (50 × 10^−3 M Tris‐HCl pH 8.0, 1% (w/v) SDS) with protease‐phosphatase inhibitor cocktail (ThermoFisher).^[ [47] ^] Click chemistry reactions were performed using commercially available reagents as per manufacturer instructions. 100 µg labeled protein was incubated with 50 µL of streptavidin magnetic beads overnight at 4 °C with end‐over‐end rotation. Following incubation, the beads were collected and rinsed three times with washing buffer. After the final wash, the supernatant was discarded, sample buffer was added to the beads and boiled at 95 °C for 5 min. The samples were further analyzed via western blotting using antibody specific for detection of endogenous SHMT2.

AML12 cells [3] = assay: FFA-induced lipid accumulation in AML12 cells (Oil Red O); format: cell-based; settings: 24 h
[4] = system: MASLD mice (60 kcal% fat diet); assay: High fat diet-induced MASLD model in mice; format: in vivo, C57BL/6J mice
Procedure: For pharmacology experiments, mice were divided into five groups (n = 8 per group): control group (C), B6 10 mg kg^−1 group [B6 (10)], high fat diet group (H), HFD + 5 mg kg^−1 B6 group [HB6 (5)], and HFD + 10 mg kg^−1 B6 group [HB6 (10). The 60 kcal% fat diet (MD12033) used for establishing the MASLD model was purchased from Medicience (Yangzhou, China). The C and B6 (10) groups were fed a chow diet for 12 weeks, followed by gavage administration of vehicle and 10 mg kg^−1 B6 for the subsequent four weeks, respectively. The H, HB6 (5) and HB6 (10) groups were fed a 60 kcal% fat diet for 12 weeks, followed by gavage administration of vehicle, 5 mg kg^−1 B6 and 10 mg kg^−1 B6 for the subsequent four weeks, respectively.
TG, FFA, and TC kits were purchased from Solarbio (Beijing, China). The liver tissues from mice were homogenized and processed according to the instructions. […]
ALT, AST, ALP, TG, NEFA, CHO, LDL‐C, and HDL‐C were assessed using a Hitachi 7020 automatic analyzer (Hitachi, Tokyo, Japan). […]
Food intake, locomotor VO2, VCO2, and heat production were measured by the TSE system, and RER were calculated using the manufacturer's system software.
Western blot was carried out as described.^[ [49] ^] In brief, samples were lysed with a lysis buffer. The same quantity of total proteins (40–60 µg) from each sample was separated on SDS‐PAGE followed by transfer onto a nitrocellulose filter membrane and incubation with the indicated antibodies. After incubation with secondary antibodies, the protein bands were visualized using a chemiluminescence imaging system. All samples in the same group were processed simultaneously.
Cells and liver tissues were extracted for total RNA. A reverse transcription kit was used to synthesize cDNA. qRT‐PCR was performed with the primers listed in Table S1 (Supporting Information) using the SYBR green PCR master mix. The coding sequence of the target gene was found in NCBI, and Primer3 (v.0.4.0) was used to design amplification primers. The results were normalized by β‐actin in the corresponding sample.

HDAC7 = biological target: T5, HDAC7 (Homo sapiens, UniProt Q8WUI4); assay: In vitro HDACs inhibition fluorescence assay, HDAC7; format: biochemical; settings: mean ± SEM
T5 construct: purchased BPS Bioscience
Procedure: as §1

[5] = 50 mg kg^−1 p.o. daily for 30 d, vs control group

T2 sequence (Q9BY41 whole entry): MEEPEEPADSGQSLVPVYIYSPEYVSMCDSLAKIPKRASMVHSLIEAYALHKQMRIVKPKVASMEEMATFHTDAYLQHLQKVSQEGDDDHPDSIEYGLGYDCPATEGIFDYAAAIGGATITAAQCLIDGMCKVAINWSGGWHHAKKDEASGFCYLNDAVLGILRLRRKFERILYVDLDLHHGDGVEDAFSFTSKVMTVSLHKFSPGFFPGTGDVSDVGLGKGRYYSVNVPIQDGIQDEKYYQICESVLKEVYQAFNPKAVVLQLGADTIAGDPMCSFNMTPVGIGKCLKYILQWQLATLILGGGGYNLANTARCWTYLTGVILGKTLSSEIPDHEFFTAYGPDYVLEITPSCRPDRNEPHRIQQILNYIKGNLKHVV
T1 sequence (Q9UKV0 whole entry): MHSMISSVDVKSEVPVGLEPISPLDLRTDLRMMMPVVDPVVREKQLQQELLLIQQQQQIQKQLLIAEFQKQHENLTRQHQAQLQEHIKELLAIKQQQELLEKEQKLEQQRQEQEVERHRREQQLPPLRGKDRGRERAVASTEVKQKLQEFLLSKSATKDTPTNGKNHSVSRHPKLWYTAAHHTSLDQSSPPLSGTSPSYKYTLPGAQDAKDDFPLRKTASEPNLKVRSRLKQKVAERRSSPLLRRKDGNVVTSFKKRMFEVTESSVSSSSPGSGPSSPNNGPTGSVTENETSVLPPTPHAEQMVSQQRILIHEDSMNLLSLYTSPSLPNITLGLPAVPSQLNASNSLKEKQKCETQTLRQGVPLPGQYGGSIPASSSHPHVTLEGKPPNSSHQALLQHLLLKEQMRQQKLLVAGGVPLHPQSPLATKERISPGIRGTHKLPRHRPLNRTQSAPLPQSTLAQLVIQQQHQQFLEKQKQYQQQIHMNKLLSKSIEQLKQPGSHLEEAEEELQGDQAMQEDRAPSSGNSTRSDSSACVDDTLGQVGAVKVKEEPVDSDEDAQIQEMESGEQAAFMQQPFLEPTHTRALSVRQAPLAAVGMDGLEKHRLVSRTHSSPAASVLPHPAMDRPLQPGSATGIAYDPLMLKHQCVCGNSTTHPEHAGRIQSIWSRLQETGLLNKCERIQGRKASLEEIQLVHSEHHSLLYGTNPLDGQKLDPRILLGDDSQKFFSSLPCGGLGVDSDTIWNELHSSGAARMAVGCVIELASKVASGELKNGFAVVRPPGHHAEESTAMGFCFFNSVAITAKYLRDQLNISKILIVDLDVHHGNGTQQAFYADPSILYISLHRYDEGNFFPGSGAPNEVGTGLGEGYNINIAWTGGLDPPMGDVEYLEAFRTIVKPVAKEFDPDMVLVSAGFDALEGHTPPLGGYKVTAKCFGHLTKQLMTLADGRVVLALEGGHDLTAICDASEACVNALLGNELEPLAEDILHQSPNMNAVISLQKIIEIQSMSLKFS
T4 sequence (O15379 whole entry): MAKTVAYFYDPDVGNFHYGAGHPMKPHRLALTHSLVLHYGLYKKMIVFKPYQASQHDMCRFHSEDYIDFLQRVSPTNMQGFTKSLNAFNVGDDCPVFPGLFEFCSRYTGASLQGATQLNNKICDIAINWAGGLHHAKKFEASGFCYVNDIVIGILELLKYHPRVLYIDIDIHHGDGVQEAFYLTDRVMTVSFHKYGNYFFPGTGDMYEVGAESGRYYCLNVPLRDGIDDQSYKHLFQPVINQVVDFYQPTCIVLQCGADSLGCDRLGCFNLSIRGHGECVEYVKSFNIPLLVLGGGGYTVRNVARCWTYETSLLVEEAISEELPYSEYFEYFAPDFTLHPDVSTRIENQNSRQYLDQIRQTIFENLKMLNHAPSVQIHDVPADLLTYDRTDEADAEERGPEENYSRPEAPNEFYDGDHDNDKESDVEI
T4 sequence (Q9Y618 395-489 partner limits assumed): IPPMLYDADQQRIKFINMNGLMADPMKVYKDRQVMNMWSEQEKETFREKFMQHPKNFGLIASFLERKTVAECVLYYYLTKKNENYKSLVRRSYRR
T5 sequence (Q8WUI4 whole entry): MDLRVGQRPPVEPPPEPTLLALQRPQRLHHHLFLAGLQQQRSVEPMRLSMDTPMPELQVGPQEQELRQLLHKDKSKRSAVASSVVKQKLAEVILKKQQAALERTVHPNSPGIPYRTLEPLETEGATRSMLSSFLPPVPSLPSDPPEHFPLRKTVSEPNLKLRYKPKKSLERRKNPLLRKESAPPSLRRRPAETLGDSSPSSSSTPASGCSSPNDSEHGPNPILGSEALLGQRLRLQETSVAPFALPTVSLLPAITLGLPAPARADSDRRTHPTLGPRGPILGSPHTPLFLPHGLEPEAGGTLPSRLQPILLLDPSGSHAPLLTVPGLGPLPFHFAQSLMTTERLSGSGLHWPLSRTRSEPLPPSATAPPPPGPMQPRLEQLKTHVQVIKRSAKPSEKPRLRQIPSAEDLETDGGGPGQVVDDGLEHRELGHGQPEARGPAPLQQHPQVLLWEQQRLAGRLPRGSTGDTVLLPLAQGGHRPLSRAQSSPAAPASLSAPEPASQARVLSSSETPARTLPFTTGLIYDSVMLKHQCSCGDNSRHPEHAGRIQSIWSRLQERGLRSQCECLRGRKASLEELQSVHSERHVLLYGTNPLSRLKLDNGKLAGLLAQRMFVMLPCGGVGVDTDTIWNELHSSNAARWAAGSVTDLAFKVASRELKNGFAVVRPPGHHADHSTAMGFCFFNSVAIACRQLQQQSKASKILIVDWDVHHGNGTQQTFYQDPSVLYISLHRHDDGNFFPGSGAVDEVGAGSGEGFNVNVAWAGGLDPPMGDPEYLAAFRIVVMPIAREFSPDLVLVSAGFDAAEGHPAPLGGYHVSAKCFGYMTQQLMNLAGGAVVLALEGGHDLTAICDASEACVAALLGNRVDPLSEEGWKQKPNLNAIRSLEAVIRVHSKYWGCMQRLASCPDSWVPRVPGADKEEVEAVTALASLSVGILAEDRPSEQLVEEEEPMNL
T3 sequence (P56524 whole entry): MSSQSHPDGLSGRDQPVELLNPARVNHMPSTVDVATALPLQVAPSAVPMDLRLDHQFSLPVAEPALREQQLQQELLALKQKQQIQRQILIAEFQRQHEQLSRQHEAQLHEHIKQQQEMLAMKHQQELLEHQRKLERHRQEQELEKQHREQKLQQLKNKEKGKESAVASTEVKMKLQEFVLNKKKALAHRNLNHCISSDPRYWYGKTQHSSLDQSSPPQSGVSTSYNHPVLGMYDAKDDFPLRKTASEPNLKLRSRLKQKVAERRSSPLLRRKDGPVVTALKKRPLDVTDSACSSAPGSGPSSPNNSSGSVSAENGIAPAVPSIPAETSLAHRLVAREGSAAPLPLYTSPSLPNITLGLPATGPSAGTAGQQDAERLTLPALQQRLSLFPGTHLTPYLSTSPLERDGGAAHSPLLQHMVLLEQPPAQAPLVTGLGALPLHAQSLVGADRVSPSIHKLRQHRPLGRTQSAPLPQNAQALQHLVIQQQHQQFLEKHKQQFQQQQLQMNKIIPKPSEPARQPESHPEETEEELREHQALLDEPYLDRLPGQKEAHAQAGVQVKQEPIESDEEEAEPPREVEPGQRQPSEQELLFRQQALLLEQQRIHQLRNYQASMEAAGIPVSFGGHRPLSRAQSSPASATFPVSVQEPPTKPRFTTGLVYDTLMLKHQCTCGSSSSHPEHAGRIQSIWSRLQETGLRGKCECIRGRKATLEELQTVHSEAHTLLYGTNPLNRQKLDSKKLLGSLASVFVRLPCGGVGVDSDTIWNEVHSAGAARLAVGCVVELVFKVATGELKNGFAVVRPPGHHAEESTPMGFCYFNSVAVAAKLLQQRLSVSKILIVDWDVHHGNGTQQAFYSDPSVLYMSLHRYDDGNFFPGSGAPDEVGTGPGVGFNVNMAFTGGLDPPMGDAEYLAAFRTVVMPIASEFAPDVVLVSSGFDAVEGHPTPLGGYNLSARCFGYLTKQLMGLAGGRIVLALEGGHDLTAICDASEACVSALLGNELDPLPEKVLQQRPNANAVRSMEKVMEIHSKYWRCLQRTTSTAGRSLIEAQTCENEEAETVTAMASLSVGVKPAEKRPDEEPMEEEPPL

SMILES: CCCCCOCCCCCNNC(=O)c1ccc(CNC(=O)c2ccccc2)cc1 [B6]
- IC50 (HDAC9): > 10 µM
- tissue distribution (blood, heart, liver, spleen, lung, kidney) [1]: highest concentrations observed in the liver and kidneys
- IC50 (HDAC8): 5 µM
- IC50 (HDAC8; mean ± SEM): 4.76 ± 0.159 µM
- FFA-inhibited mitochondrial activity (Mito-Tracker staining) (AML12 cells [2]): ameliorated
- mitochondrial stress test (OCR, basal and maximal respiration) (AML12 cells [2]; FFA): partially restored mitochondrial activity
- overall health and behavior (ICR mice; 50 mg kg^−1 p.o. daily for 30 d, ICR mice): no signs of toxicity
- body weight of male and female mice (ICR mice; [5]): did not induce any significant abnormal changes
- histopathological evaluations of liver, kidneys, heart, spleen and lungs (ICR mice; [5]): no significant differences
- therapeutic window (ICR mice; 50 mg kg^−1 vs effective dose 5 mg kg^−1): at least tenfold
- IC50 (HDAC4): > 10 µM
- IC50 (HDAC3): > 10 µM
- myristoylation of SHMT2 (myristoylation of SHMT2): markedly increase
- concentration of maximal effect on lipid accumulation (AML12 cells [3]): 500 nM
- FFA-induced lipid accumulation (AML12 cells [3]; various concentrations): significantly mitigated
- body weight, chow diet (C group vs B6 (10) group) ([4]; 10 mg kg^−1 p.o., chow diet): no significant differences in body weight
- body weight of high fat diet mice ([4]; 5 or 10 mg kg^−1 p.o., final 4 weeks, dose-dependent): reduction in body weight
- blood lipids NEFA, CHO, LDL-C ([4]; HFD mice): reduce the elevated levels of blood lipids
- glucose tolerance test and insulin tolerance test ([4]; HFD mice): improved glucose tolerance and insulin resistance
- phosphorylation of AMPKα at Thr172 in mouse liver ([4]; HFD mice): restores the phosphorylation level
- serum ALT, AST and ALP (liver damage) ([4]; HFD mice): alleviate liver damage
- serum HDL-C ([4]; HFD mice): no significant effect
- liver size and weight, body fat mass ([4]; HFD mice, 5 or 10 mg kg^−1 p.o.): effectively controlled
- hepatic lipid content (TG, FFA, TC) ([4]; HFD mice, 5 or 10 mg kg^−1 p.o., dose-dependent): reduction in hepatic lipid content
- O2 consumption (VO2), CO2 production (VCO2) and heat ([4]; HFD mice, compared to H group): increase
- liver protein and mRNA levels of CPT1A, PGC1α and PPARα ([4]; HFD mice, compared to H group): restored
- respiratory exchange ratio (RER) ([4]; HFD mice, metabolic cages): slight increase in RER value
- liver protein and mRNA expression of SREBP1c, FASN and SCD1 ([4]; HFD mice, dose-dependent): downregulation
- food intake of mice ([4]; mouse, in vivo): no effect on food intake
- IC50 (HDAC7): > 10 µM
